Assay: Solubility of the furylphosphine in water

Structure (SMILES)	solubility (23 °C) [mg/mL]	also measured
O=C([O-])c1ccc(P(c2ccccc2)c2ccccc2)o1.[Na+] [Example 1, sodium 2-(diphenylphosphino)furan-5-carboxylate]	250	
O=P([O-])([O-])c1ccc(P(c2ccccc2)c2ccccc2)o1.[Na+].[Na+] [Example 2, disodium 2-(diphenylphosphino)furan-5-phosphonate]		solubility (20 °C): 680 mg/mL
O=P(O)(O)c1ccc(P(c2ccccc2)c2ccc(P(=O)(O)O)o2)o1 [Example 3, tetrasodium 2,2′-phenylphosphine-diylbis(furan-5-phosphonate)]	1140	
O=S([O-])c1ccc(P(c2ccccc2)c2ccccc2)o1.[Na+] [Example 4, sodium 2-(diphenylphosphino)furan-5-sulphinate]		solubility (21 °C): 205 mg/mL
